Test results taken from US9902725B2, “Heterocyclic derivatives as RORgamma modulators” (GENFIT, priority 2014, dated 2018).

Legend:
human RORγt = biological target: T1, human RORγt (Homo sapiens, UniProt P51449); assay: RORE luciferase/RORγt transactivation assay; format: cell-based; set-up: expressed in transfected cells; conditions: COS-7 cells transfected with IL-17 promoter luciferase reporter and RORγt plasmid, 20 h
T1 sequence (P51449 1-497 isoform P51449-2): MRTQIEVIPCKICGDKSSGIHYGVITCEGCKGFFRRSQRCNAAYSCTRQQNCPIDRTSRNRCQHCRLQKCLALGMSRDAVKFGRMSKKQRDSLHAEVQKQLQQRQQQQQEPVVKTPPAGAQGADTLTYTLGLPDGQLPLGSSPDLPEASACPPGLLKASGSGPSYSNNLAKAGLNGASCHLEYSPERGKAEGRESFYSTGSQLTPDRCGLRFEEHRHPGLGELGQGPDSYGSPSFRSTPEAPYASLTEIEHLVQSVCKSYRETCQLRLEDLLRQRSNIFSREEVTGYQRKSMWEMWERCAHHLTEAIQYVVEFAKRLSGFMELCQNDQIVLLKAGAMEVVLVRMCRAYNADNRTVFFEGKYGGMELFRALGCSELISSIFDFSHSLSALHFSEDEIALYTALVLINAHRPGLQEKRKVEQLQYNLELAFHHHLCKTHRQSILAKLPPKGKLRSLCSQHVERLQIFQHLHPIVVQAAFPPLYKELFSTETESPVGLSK
From the text: It is well known that RORγ binds to a conserved non-coding sequence (CNS) enhancer element in the IL-17 promoter. Accordingly, we have used in this assay a luciferase reporter gene construct that contains the human IL-17 promoter fragment with RORγ-specific CNS enhancer element and a RORγt overexpressing plasmid, to indirectly assess the effect of compounds on RORγ activity. Inhibition of RORγ activity by test compounds will result in a decrease in luciferase activity in COS-7 cells transfected with the reporter construct.
Monkey Kidney COS-7 cell line are maintained in a standard culture medium Dulbecco's modified Eagle's minimal (DMEM) medium supplemented with 10% fetal calf serum, 1% sodium pyruvate, 1% essential amino acids and 1% antibiotics at 37° C. in a humidified atmosphere of 5% CO2 and 95% air. Culture medium was changed every 2 days.
The 4.3 Kb human IL-17 promoter containing the RORγ-specific CNS enhancer element was PCR amplified from human genomic DNA and cloned into a pGL3-TKLuc2Cp reporter plasmid. To overexpress RORγt, the full-length cDNA of human RORγt (identical to published sequence NM 001001523) was cloned without any restriction into pcdna3.1DV5-His-topo to generate the RORγt overexpression plasmid “RORγt_FL_h_pcDNA3.1DV5-His-TOPO_1”.
The luciferase reporter plasmid and the RORγt overexpression plasmid were transfected into COS-7 cell line using 4 μLJetPEITM/μg of DNA. Briefly, 150 ng of DNA (ration ½ between RORE-Tk Luc2Cp and cDNA RORγt or the empty vector for the negative control) was served to transfect adherent COS-7 cells in a […] culture flask, in complete medium (see cos-7 cell line culture). Cells were incubated for 24 hours in a humidified atmosphere of 5% CO2 and 95% air
Cells were then detached (using trypsin) and washed by centrifugation at 300 g for 10 minutes. Cell pellet was resuspended in serum free/phenol red free DMEM and seeded in 384 well plates at a density of 10000 cells/well and then incubated for 4 h at 37° C.
Compounds were dissolved in 100% DMSO to obtain 10 mM stock solutions. For each compound, test concentrations were diluted in serum free/phenol red free DMEM using the Genesis Freedom 200™ (TECAN) and added to the cells to obtain a 0.3% DMSO final concentration (in a final volume of 40 μL per well). T091317 was used as reference compound. Cells were incubated in presence of compounds for an additional 20 h at 37° C. in a humidified atmosphere of 5% CO2 and 95% air
The luciferase activity was then measured with 40 μL/well steady-Glo Luciferase assay system (Promega, Madison, Wis.) and after incubation at room temperature for 30 minutes. The luminescence was estimated using the Ultra384 reader (TECAN). Data were collected and analyzed using GraphPad Prism software (GraphPad Software V5.02, San Diego Calif. USA). IC50 in μM and Emax in % were reported for each compound.

MOG-induced EAE mice = assay: MOG-induced EAE in mice, clinical score; format: in vivo
Experimental: 8-10 week old, male C57BL/6 mice were purchased from Janvier Lab (St Berthevin, France) and housed in a specific pathogen free (SPF) animal facility for one week before the start of the studies. Peptide antigen MOG35-55 (Myelin Oligodendrocyte Glycoprotein) ([…], SEQ ID NO:1, Polypeptide group, France) was dissolved in PBS and emulsified with an equal volume of Complete Freund's Adjuvant (CFA) containing 5 mg/mL of mycobacteria and administrated by subcutaneous injection at the dorsal flanks on day 0 at 200 μg/mouse. To ensure induction of reliable EAE, 200 ng of Bordetella pertussis toxin (Sigma) was given via intraperitoneal injection at day 0 and 2 (Cua, Sherlock et al. 2003; Zhang, Gran et al. 2003). Animals were treated with drug beginning 2 days before peptide injection. Animals were randomized into groups for treatment by weight, so that the average weight of each group was similar. The groups were segregated by cage. Compounds according to the invention were suspended in Carboxymethyl Cellulose (CMC) 1% (Sigma) and Tween80 0.1% (Sigma) by sonication and animals were dosed daily by gavage with 10 mL/kg body weight. The daily dose of Cpd. 1 was 30 mg/kg and vidofludimus (reference compound) at 60 mg/kg in protocol 1 to assess IL-17 A and IL-17F secretion from splenocytes ex vivo. In protocol 2, mice were treated with Cpd. 1 at 3 and 10 mg/Kg or T4 compound at 1 and 10 mg/kg daily by gavage to assess the clinical score. Clinical assessment of EAE was performed daily according to the following criteria: 0) no disease, 1) limp tail, 2) weak/partially paralyzed hind legs, 3) completely paralyzed hind legs, 4) complete hind and partial front leg paralysis, and 5) complete paralysis/death. For Cytokine quantifications, mice were euthanized 20 days after EAE induction. Spleen-isolated cells were collected and adjusted to 2×10^6 cells/mL. Cells were cultured in complete RPMI medium (RPMI supplemented with 10% of fetal calf serum, 1% glutamine, and 1% penicillin/streptomycin). Spleen cells were stimulated with MOG (20 μg/mL) (Polypeptide group, France). Cytokine levels were evaluated 48 h later by ELISA (R&D Systems Europe) or HTRF (CisBio, France) in culture supernatants using IL-17A and IL-17-F according to the manufacturer's protocols. The statistical significance was based on Student's t test (p<0.05, unpaired test).

Structure (SMILES) | IC50 (human RORγt) [nM] | onset of EAE (MOG-induced EAE mice; administered p/os (orally) for 20 days) | EAE clinical score (MOG-induced EAE mice; daily by gavage, Cpd. 1 at 3 and 10 mg/Kg, T4 compound at 1 and 10 mg/kg)
O=C(O)CCc1c[nH]c2ccc(CC(=O)NC(c3ccccc3)c3ccccc3N3CCCCC3)cc12 (stereo not drawn) [Cpd. 1, 3-{5-[({phenyl[2-(piperidin-1-yl)phenyl]methyl}carbamoyl)methyl]-1H-indol-3-yl}propanoic acid] | < 1000 | able to delay the onset of EAE | improvement was apparent
O=C(O)CCc1c[nH]c2ccc(CC(=O)NC(c3cccc(F)c3)c3ccccc3N3CCCCC3)cc12 (stereo not drawn) [Cpd. 3, 3-[5-({[(3-fluorophenyl)[2-(piperidin-1-yl)phenyl]methyl]carbamoyl}methyl)-1H-indol-3-yl]propanoic acid] | < 1000 |  | 
Cc1ccc(C(NC(=O)Cc2ccc3[nH]cc(CCC(=O)O)c3c2)c2ccccc2)c(N2CCCC2)c1 (stereo not drawn) [Cpd. 5, 3-{5-[({[4-methyl-2-(pyrrolidin-1-yl)phenyl](phenyl)methyl}carbamoyl)methyl]-1H-indol-3-yl}propanoic acid] | < 1000 |  | 
CC(C)CC(NC(=O)Cc1ccc2[nH]cc(CCC(=O)O)c2c1)c1ccccc1N1CCCCC1 (stereo not drawn) [Cpd. 29, 3-{5-[({3-methyl-1-[2-(piperidin-1-yl)phenyl]butyl}carbamoyl)methyl]-1H-indol-3-yl}propanoic acid] | < 1000 |  | 
